Consider 25 compounds from patent US20210188843A1, “QUINOLINE COMPOUNDS AND THEIR PREPARATION AND USE AS ANTIMALARIAL AGENTS” (The United States of America,as represented by the …, priority 2018, published 2021).

The structures appear in SMILES notation. Values after ≈ are worked out from the molar mass of the structure shown. Read-outs that look alike come from different tables or passages of the source.

Data set [1] concerns Asexual parasites of P. falciparum strain 3D7. The data set is described as follows: In vitro drug activity on asexual parasites (SYBR Green assay). The settings on record: Plasmodium falciparum, read-out: Asexual EC50. The data set is classed as cell-based. The essentials: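 Growth was measured by SYBR Green I fluorescence (excitation 490 nm, emission 520 nm) after freeze-thaw lysis and 30 min staining at room temperature. Parasites (0.5% parasitemia, 2% hematocrit) had been incubated 72 h with compound, DMSO below 0.5%. Conditions were run in duplicate with no-drug and RBC-alone controls.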

The nature of data set [2]: Microsomal stability (rat). Format: in vitro ADME. Particulars: rat microsomes.
Data set [3] in a line: Solubility pH 7.4. Format: physicochemical. The settings on record: aqueous buffer.
The nature of data set [4]: PAMPA permeability. The data set is classed as in vitro ADME. For orientation: The PAMPA barrier holds no transporters, so it reflects passive diffusion.
[5] abbreviates: Table 1, P. falciparum 3D7 asexual stage, 72 h.
The mark [6] stands for this setting: Table 1, read-out: Microsomal Stability (rat) T1/2.
Setting [7] is: Table 3, read-out: Microsomal Stability (rat) T1/2.
Setting [8] is: Table 3, P. falciparum 3D7 asexual stage, 72 h.

Usually EC50 stands for the concentration giving half of the maximal effect. Usually solubility stands for how much of the substance goes into solution per volume. By Papp is commonly meant the rate of passage across a membrane or cell layer, normalised by area and donor concentration. Low readings indicate slow passage, high ones fast passage. In the case of `Cn1c(=N)n(-c2cccc(CN3CCNCC3)c2)c2c3cc(-c4ccc(Cl)cc4)ccc3ncc21` [Compound 85, 8-(4-chlorophenyl)-3-methyl-1-(3-(piperazin-1-ylmethyl)phenyl)-1,3-dihydro-2H-imidazo[4,5-c]quinolin-2-imine], the EC50 in data set [1] (setting [5]) was determined as 702 nM. Further, in data set [2] (setting [6]), the half-life was more than 30 min. Moreover, the solubility in data set [3] (Table 1) was more than 48 µg/mL. The Papp in data set [4] (Table 1) came out at 11.2 ×10⁻⁶ cm/s.
In the case of `Cn1c(=N)n(-c2cncnc2)c2c3cc(-c4cccc(F)c4)ccc3ncc21`, the EC50 in data set [1] (3D7, 72 h) was determined as 169 nM. Further, the half-life in data set [2] (setting [7]) was more than 30 min. In data set [3] (Table 3), this compound had a solubility of 24.9 µg/mL (≈ 67.2 µM). This compound also registered a Papp in data set [4] (Table 3) of 60.6 ×10⁻⁶ cm/s.
With `N=c1ccc2cnc3ccc(-c4ccc(N)nc4)cc3c2n1-c1cccc(C(F)(F)F)c1`, the EC50 in data set [1] (Table 2, P. falciparum 3D7 asexual stage, 72 h) turned out to be 21.8 nM. Further, the half-life in data set [2] (Table 2, read-out: Microsomal Stability (rat) T1/2) was more than 30 min. Further, in data set [3] (Table 2), the solubility is more than 64 µg/mL. The compound also came in with an apparent permeability coefficient (Papp) in data set [4] (Table 2) of 228 ×10⁻⁶ cm/s.
As for `Cc1ccc(-c2ccc3ncc4c(c3c2)n(-c2cncnc2)c(=N)n4C)cn1`, the EC50 in data set [1] (setting [8]) came to 190 nM. The half-life in data set [2] (setting [7]) is more than 30 min. The compound also came in with a solubility in data set [3] (Table 3) of more than 54 µg/mL. In data set [4] (Table 3), the Papp was found to be 136 ×10⁻⁶ cm/s.
As for `Cc1ccc(C#N)cc1-n1/c(=N/S(N)(=O)=O)n(C)c2cnc3ccc(-c4ccc(Cl)cc4)cc3c21` [Compound 100, (8-(4-chlorophenyl)-1-(5-cyano-2-methylphenyl)-3-methyl-1,3-dihydro-2H-imidazo[4,5-c]quinolin-2-ylidene)sulfonamide], the EC50 in data set [1] (setting [5]) was found to be 12.9 nM. Further, in data set [2] (setting [6]), the half-life was more than 30 min. For the same compound, in data set [3] (Table 1), the solubility was less than 1 µg/mL. This compound also showed a Papp in data set [4] (Table 1) of 236 ×10⁻⁶ cm/s.
Taken in the same sequence, the figures for `CC(=O)N1CCN(c2nc(C)c(-n3c(=N)n(C)c4cnc5ccc(-c6ccc(Cl)cc6)cc5c43)cc2C#N)CC1` [Compound 130, 2-(4-acetylpiperazin-1-yl)-5-(8-(4-chlorophenyl)-2-imino-3-methyl-2,3-dihydro-1H-imidazo[4,5-c]quinolin-1-yl)-6-methylnicotinonitrile] were 22.2 nM, 20.2 min, more than 54 µg/mL and 112 ×10⁻⁶ cm/s.
For `Cc1cccc(-c2ccc3ncc4c(c3c2)n(-c2cc(C#N)ccc2C)c(=N)n4C)c1` [Compound 36, 3-(2-imino-3-methyl-8-(m-tolyl)-2,3-dihydro-1H-imidazo[4,5-c]quinolin-1-yl)-4-methylbenzonitrile] the same measures were 158 nM, 27 min, more than 40 µg/mL and 1150 ×10⁻⁶ cm/s.
For `Cc1cc(N2CCC2)c(C#N)cc1-n1c(=N)n(C)c2cnc3ccc(-c4ccc(Cl)cc4)cc3c21` [Compound 110, 2-(azetidin-1-yl)-5-(8-(4-chlorophenyl)-2-imino-3-methyl-2,3-dihydro-1H-imidazo[4,5-c]quinolin-1-yl)-4-methylbenzonitrile] the same measures were 373 nM, more than 30 min, less than 1 µg/mL and 176 ×10⁻⁶ cm/s.
On to `Cc1cc(C#N)c(C#N)cc1-n1c(=N)n(C)c2cnc3ccc(-c4ccc(Cl)cc4)cc3c21` [Compound 135, 4-(8-(4-chlorophenyl)-2-imino-3-methyl-2,3-dihydro-1H-imidazo[4,5-c]quinolin-1-yl)-5-methylphthalonitrile], for which, in data set [1] (setting [5]), the EC50 was 27 nM. Further, in data set [2] (setting [6]), the half-life was more than 30 min. Also, the solubility in data set [3] (Table 1) is less than 1 µg/mL. Moreover, the Papp in data set [4] (Table 1) was 397 ×10⁻⁶ cm/s.
For the compound `Cc1ccc(C#N)cc1-n1c(=N)n(C)c2cnc3ccc(-c4ccc(Cl)cc4)cc3c21` [Compound 137, 3-(8-(4-chlorophenyl)-2-imino-3-methyl-2,3-dihydro-1H-imidazo[4,5-c]quinolin-1-yl)-4-methylbenzonitrile], the EC50 in data set [1] (setting [5]) was 43.1 nM. Also, the half-life in data set [2] (setting [6]) is more than 30 min. Also, the concentration in solution in data set [3] (Table 1) (solubility) was 3.6 µg/mL (≈ 8.49 µM). The Papp in data set [4] (Table 1) worked out at 1260 ×10⁻⁶ cm/s.
Turning to `Cc1ncncc1-n1c(=N)n(C)c2cnc3ccc(-c4cccc(F)c4)cc3c21`, the EC50 in data set [1] (setting [8]) amounted to 1240 nM. In addition, the half-life in data set [2] (setting [7]) is more than 30 min. In addition, the solubility in data set [3] (Table 3) was more than 38 µg/mL. In addition, in data set [4] (Table 3), the Papp stood at 1100 ×10⁻⁶ cm/s.
With `Cc1ccc(C#N)cc1-n1/c(=N/S(N)(=O)=O)n(C)c2cnc3ccc(-c4cccc(F)c4)cc3c21` [Compound 116], the EC50 in data set [1] (setting [5]) came to 27.8 nM. The half-life in data set [2] (setting [6]) came out at 17.9 min. Besides, the solubility in data set [3] (Table 1) was less than 1 µg/mL. For the same compound, the Papp in data set [4] (Table 1) is 1070 ×10⁻⁶ cm/s.
Consider `Cc1cc(N2CCN(C)CC2)c(C#N)cc1-n1c(=N)n(C)c2cnc3ccc(-c4ccc(Cl)cc4)cc3c21` [Compound 108, 5-(8-(4-chlorophenyl)-2-imino-3-methyl-2,3-dihydro-1H-imidazo[4,5-c]quinolin-1-yl)-4-methyl-2-(4-methylpiperazin-1-yl)benzonitrile], for which the EC50 in data set [1] (setting [5]) was found to be 464 nM. For the same compound, in data set [2] (setting [6]), the half-life was more than 30 min. Further, the solubility in data set [3] (Table 1) came to 37.6 µg/mL (≈ 72 µM). In addition, the Papp in data set [4] (Table 1) amounted to 255 ×10⁻⁶ cm/s.
As for `Cc1ccc(C#N)cc1-n1c(=N)n(C)c2cnc3ccc(-c4cnc5ccccc5c4)cc3c21` [Compound 105, 3-(2-imino-3-methyl-8-(quinolin-3-yl)-2,3-dihydro-1H-imidazo[4,5-c]quinolin-1-yl)-4-methylbenzonitrile], the EC50 in data set [1] (setting [5]) worked out at 714 nM. Further, in data set [2] (setting [6]), the half-life is more than 30 min. Also, the solubility in data set [3] (Table 1) was more than 44 µg/mL. Also, the Papp in data set [4] (Table 1) was determined as 1150 ×10⁻⁶ cm/s.
For `Cc1ccc(C#N)cc1-n1/c(=N/C(=O)OC(C)(C)C)n(C)c2cnc3ccc(-c4ccc(Cl)cc4)cc3c21` [Compound 88, tert-butyl (E)-(8-(4-chlorophenyl)-1-(5-cyano-2-methylphenyl)-3-methyl-1,3-dihydro-2H-imidazo[4,5-c]quinolin-2-ylidene)carbamate] the same measures were 1620 nM, more than 30 min, less than 1 µg/mL and 128 ×10⁻⁶ cm/s.
Taken in the same sequence, the figures for `Cc1ccc(C#N)cc1-n1c(=N)n(C)c2cnc3ccc(-c4ccccc4)cc3c21` [Compound 35, 3-(2-imino-3-methyl-8-phenyl-2,3-dihydro-1H-imidazo[4,5-c]quinolin-1-yl)-4-methylbenzonitrile] were 34 nM, more than 30 min, more than 39 µg/mL and 716 ×10⁻⁶ cm/s.
For `Cn1c(=N)n(-c2cccc(Cl)c2)c2c3cc(-c4ccc(Cl)cc4)ccc3ncc21` [Compound 28, 1-(3-chlorophenyl)-8-(4-chlorophenyl)-3-methyl-1,3-dihydro-2H-imidazo[4,5-c]quinolin-2-imine] the same measures were 186 nM, more than 30 min, less than 1 µg/mL and 226 ×10⁻⁶ cm/s.
For the compound `Cn1c(=N)n(-c2ccccc2C#N)c2c3cc(-c4ccc(Cl)cc4)ccc3ncc21` [Compound 68, 2-(8-(4-chlorophenyl)-2-imino-3-methyl-2,3-dihydro-1H-imidazo[4,5-c]quinolin-1-yl)benzonitrile], the EC50 in data set [1] (setting [5]) came to 1450 nM. The half-life in data set [2] (setting [6]) is more than 30 min. In data set [3] (Table 1), this compound had a solubility of more than 41 µg/mL. The Papp in data set [4] (Table 1) was determined as 142 ×10⁻⁶ cm/s.
Take `Cc1ccc(C(N)=O)cc1-n1c(=N)n(C)c2cnc3ccc(-c4ccc(Cl)cc4)cc3c21` [Compound 92, 3-(8-(4-chlorophenyl)-2-imino-3-methyl-2,3-dihydro-1H-imidazo[4,5-c]quinolin-1-yl)-4-methylbenzamide]: the half-life in data set [2] (setting [6]) is more than 30 min. This compound registered a solubility in data set [3] (Table 1) of more than 44 µg/mL. The compound further yielded a Papp in data set [4] (Table 1) of 2 ×10⁻⁶ cm/s.
`COc1ccc(-c2ccc3ncc4c(c3c2)n(-c2nccnc2C)c(=N)n4C)cc1OC`: the EC50 in data set [1] (setting [8]) was found to be 58 nM. In data set [3] (Table 3), the solubility is more than 63 µg/mL. The Papp in data set [4] (Table 3) came to 1240 ×10⁻⁶ cm/s.
In the case of `Cn1c(=N)n(-c2ccccc2O)c2c3cc(-c4ccc(Cl)cc4)ccc3ncc21` [Compound 83, 2-(8-(4-chlorophenyl)-2-imino-3-methyl-2,3-dihydro-1H-imidazo[4,5-c]quinolin-1-yl)phenol], the EC50 in data set [1] (setting [5]) was determined as 593 nM. In data set [3] (Table 1), this compound returned a solubility of less than 1 µg/mL. Further, the Papp in data set [4] (Table 1) amounted to 859 ×10⁻⁶ cm/s.
With `Cc1cc(N2CCN(C)CC2)c(C#N)cc1-n1c(=N)n(C)c2cnc3ccc(-c4cccc(F)c4)cc3c21` [Compound 144, 5-(8-(3-fluorophenyl)-2-imino-3-methyl-2,3-dihydro-1H-imidazo[4,5-c]quinolin-1-yl)-4-methyl-2-(4-methylpiperazin-1-yl)benzonitrile], the EC50 in data set [1] (setting [5]) came out at 159 nM. The half-life in data set [2] (setting [6]) was more than 30 min. The solubility in data set [3] (Table 1) was more than 50 µg/mL.
For the compound `Cn1c(=N)n([C@H]2CC[C@H](N3CCNCC3)CC2)c2c3cc(-c4ccc(Cl)cc4)ccc3ncc21` [Compound 96, 8-(4-chlorophenyl)-3-methyl-1-((1r,4r)-4-(piperazin-1-yl)cyclohexyl)-1,3-dihydro-2H-imidazo[4,5-c]quinolin-2-imine], in data set [1] (setting [5]), the EC50 turned out to be 2630 nM. Further, the half-life in data set [2] (setting [6]) is more than 30 min. This compound came in with a solubility in data set [3] (Table 1) of more than 47 µg/mL.
Taken in the same sequence, the figures for `Cc1cccc(-n2c(=N)n(C)c3cnc4ccc(-c5ccc(Cl)cc5)cc4c32)c1` [Compound 66, 8-(4-chlorophenyl)-3-methyl-1-(m-tolyl)-1,3-dihydro-2H-imidazo[4,5-c]quinolin-2-imine] were 382 nM, more than 30 min and 4 µg/mL (≈ 10 µM).
Taken in the same sequence, the figures for `Cn1c(=N)n(-c2cnc(N3CCOCC3)c(C#N)c2)c2c3cc(-c4ccc(Cl)cc4)ccc3ncc21` [Compound 50, 5-(8-(4-chlorophenyl)-2-imino-3-methyl-2,3-dihydro-1H-imidazo[4,5-c]quinolin-1-yl)-2-morpholinonicotinonitrile] were 309 nM, more than 30 min and less than 1 µg/mL.
